Assay results reported in publication PMC7756445, “A Novel Prodrug of a nNOS Inhibitor with Improved Pharmacokinetic Potential” (Chemmedchem, 2020).
Like-named read-outs stand apart in the source and are kept apart here.

Columns and labels:
mARC = tested on: mARC; design: method as in PMID 31790578; settings: known in vivo studies; cited from earlier work
[1] = Log D and log P by shake-flask method; format: physicochemical; settings: for logP: shake-flask, as free amine, mean ± SD of three
From the text: The herein presented amidoxime 2 was designed as prodrug of the amidine 1 to improve membrane permeability and oral bioavailability. In this context, the deepening of the physicochemical properties is essential to obtain a favorable pharmacological profile. Therefore, we investigated the lipophilicity, the passive permeation through the human GI tract through the PAMPA assays, and the chemical and enzymatic stabilities in simulated GI fluids and plasma. […] In this study, the lipophilicity of our compounds was determined by means of the “shake‐flask method” and compared to the corresponding values calculated by the software. ^[43] However, for ionizable compounds, the distribution coefficient (log D) should be used instead of log P in the pH range where ionic species exist. ^[44] In this study, log P and log D were calculated (Table 1).
The column was a Waters Symmetry RP‐C18 column (4.6×150 mm, 5 μm). The mobile phase was a mixture of TFA 0.01 M/ACN/(MeOH/THF 90 : 10) 20/52/28 and the flow rate was 0.7 mL/min. The UV detector was set at a length of 254 nm.
Both n‐octanol and aqueous buffer (pH 1.4, 6.5 and 9.4) solutions were saturated of each other. 2 mg of tested compound was dissolved in 500 μL of organic phase and mixed with an equal volume of aqueous buffer by repeated inversions of up to 200 times for 5 min and then allowed to stand for 30 min for the phases to fully separate. Thereafter, the respective phases were analyzed by HPLC.

PAMPA-GI assay = test: PAMPA-GI assay; design: Papp at 2 h: dose or concentration left out as unconfirmed; settings: for Papp at 2 h: PAMPA; for PAMPA-GI permeability (in words): only at pH 7.4
Method: (§1) The relative passive transcellular diffusion of compounds, expressed as permeability coefficient (Pe), was determined with a permeability equation. ^[45] The permeabilities of 1, 2, and 1400 W were determined at pH 5.0, 6.5, and 7.4 to mimic the physiological conditions of the GI tract (Table 1). […] As the new prodrug was designed for the potential treatment of neurodegenerative diseases, an important parameter is its capability to cross the BBB.
Each donor filtration plate well, carefully impregnated with 5 µL of this solution, was added of 150 μL of […] test compound buffer solutions (phosphate buffer for pH 7.4 and pH 6.5 and hydrochloric acid buffer for pH 1.4). Subsequently, the drug‐filled donor plate was placed onto the acceptor plate prefilled with the same buffer (300 μL) as the acceptor solution. Once replaced the plate lid, the resulting assembled donor‐acceptor plates were incubated at room temperature for 2 h. The concentration in the acceptor and donor solutions were determined by HPLC. The Pe was determined as previously reported. ^[47]

PAMPA-BBB assay = test: PAMPA-BBB assay; design: Papp at 18 h: dose or concentration left out as unconfirmed; settings: for Papp at 18 h: pig, PAMPA
Method: as §1
PAMPA‐BBB assays were performed following the same procedure described above for PAMPA‐GI. Briefly, an artificial membrane consisting in a porcine polar brain lipid extract mixture (purchased from Avantis Polar Lipids, Alabaster, AL, USA) and an incubation time of 18 h were adopted as experimental conditions.

nNOS = tested on: nNOS; design: method as in PMID 20933416; settings: previously reported; cited from earlier work
eNOS = tested on: eNOS; design: method as in PMID 20933416; settings: previously reported; cited from earlier work
iNOS = tested on: iNOS; design: method as in PMID 20933416; settings: previously reported; cited from earlier work
[2] = porcine polar brain lipid, 18 h

Row | logD ([1]; n-octanol/aqueous buffer, pH 1.4, n-octanol/aqueous buffer pH 1.4, mean ± SD of three, read-out: log D 1.4) | logD ([1]; n-octanol/aqueous buffer, pH 6.5, n-octanol/aqueous buffer pH 6.5, mean ± SD of three, read-out: log D 6.5) | logD ([1]; n-octanol/aqueous buffer, pH 9.4, n-octanol/aqueous buffer pH 9.4, mean ± SD of three, read-out: log D 9.4) | logP ([1]; n-octanol/aqueous buffer) | Papp at 2 h (PAMPA-GI assay; pH 1.4) [×10⁻⁶ cm/s] | Papp at 2 h (PAMPA-GI assay; pH 6.5) [×10⁻⁶ cm/s] | Papp at 2 h (PAMPA-GI assay; pH 7.4) [×10⁻⁶ cm/s] | PAMPA-GI permeability (in words) (PAMPA-GI assay) | Papp at 18 h (PAMPA-BBB assay; PAMPA-BBB permeability Pe, porcine polar brain lipid, 18 h) [×10⁻⁶ cm/s] | melting point [°C] | logD ([1]; n-octanol/aqueous buffer pH 1.4, mean ± SD of three, read-out: log D 1.4) | logD ([1]; n-octanol/aqueous buffer pH 6.5, mean ± SD of three, read-out: log D 6.5) | logD ([1]; n-octanol/aqueous buffer pH 9.4, mean ± SD of three, read-out: log D 9.4) | Papp at 18 h (PAMPA-BBB assay) [×10⁻⁶ cm/s] | SMILES | conversion to the corresponding benzamidine in vivo (mARC) | PAMPA-BBB permeation class (PAMPA-BBB assay; [2]) | IC50 (nNOS) [nM] | eNOS/nNOS selectivity (eNOS) [folds] | iNOS/nNOS selectivity (iNOS) [folds]
1 |  |  |  |  |  |  |  |  |  |  |  |  |  |  | NC(=NO)c1ccccc1 [BAO, benzamidoxime] | completely converted |  |  |  | 
2 | -0.85 | -0.31 | 0.75 | 2.54 | 0.57 | 1.02 | 1.88 | good permeability | 2.7 | 278 to 280 |  |  |  |  | Br.CC(=N)NC(c1ccccc1)c1ccccc1 [Compound 1, 1‐(benzhydrylamino)ethaniminium bromide] |  | CNS± (CNS± (discrete BBB permeation): Pe from 4.0 to 2.0) | 300 | 1166 | 100
3 |  |  |  | -1.66 | 0.98 | 1.02 | 1.86 | good permeability |  |  | -1.82 | -1.78 | -1.66 | 1.49 | CC(=N)NCc1cccc(CN)c1 [1400 W, reference compound] |  | CNS− (CNS− (indicative of low BBB permeation): Pe <2.0) |  |  | 
